The values below come from ChEMBL document CHEMBL4304778 (Eur J Med Chem, 2019).

A value given as a limit tells only on which side of the number the result lay.

Sequence of Vascular endothelial growth factor receptor 3 (P35916 whole entry): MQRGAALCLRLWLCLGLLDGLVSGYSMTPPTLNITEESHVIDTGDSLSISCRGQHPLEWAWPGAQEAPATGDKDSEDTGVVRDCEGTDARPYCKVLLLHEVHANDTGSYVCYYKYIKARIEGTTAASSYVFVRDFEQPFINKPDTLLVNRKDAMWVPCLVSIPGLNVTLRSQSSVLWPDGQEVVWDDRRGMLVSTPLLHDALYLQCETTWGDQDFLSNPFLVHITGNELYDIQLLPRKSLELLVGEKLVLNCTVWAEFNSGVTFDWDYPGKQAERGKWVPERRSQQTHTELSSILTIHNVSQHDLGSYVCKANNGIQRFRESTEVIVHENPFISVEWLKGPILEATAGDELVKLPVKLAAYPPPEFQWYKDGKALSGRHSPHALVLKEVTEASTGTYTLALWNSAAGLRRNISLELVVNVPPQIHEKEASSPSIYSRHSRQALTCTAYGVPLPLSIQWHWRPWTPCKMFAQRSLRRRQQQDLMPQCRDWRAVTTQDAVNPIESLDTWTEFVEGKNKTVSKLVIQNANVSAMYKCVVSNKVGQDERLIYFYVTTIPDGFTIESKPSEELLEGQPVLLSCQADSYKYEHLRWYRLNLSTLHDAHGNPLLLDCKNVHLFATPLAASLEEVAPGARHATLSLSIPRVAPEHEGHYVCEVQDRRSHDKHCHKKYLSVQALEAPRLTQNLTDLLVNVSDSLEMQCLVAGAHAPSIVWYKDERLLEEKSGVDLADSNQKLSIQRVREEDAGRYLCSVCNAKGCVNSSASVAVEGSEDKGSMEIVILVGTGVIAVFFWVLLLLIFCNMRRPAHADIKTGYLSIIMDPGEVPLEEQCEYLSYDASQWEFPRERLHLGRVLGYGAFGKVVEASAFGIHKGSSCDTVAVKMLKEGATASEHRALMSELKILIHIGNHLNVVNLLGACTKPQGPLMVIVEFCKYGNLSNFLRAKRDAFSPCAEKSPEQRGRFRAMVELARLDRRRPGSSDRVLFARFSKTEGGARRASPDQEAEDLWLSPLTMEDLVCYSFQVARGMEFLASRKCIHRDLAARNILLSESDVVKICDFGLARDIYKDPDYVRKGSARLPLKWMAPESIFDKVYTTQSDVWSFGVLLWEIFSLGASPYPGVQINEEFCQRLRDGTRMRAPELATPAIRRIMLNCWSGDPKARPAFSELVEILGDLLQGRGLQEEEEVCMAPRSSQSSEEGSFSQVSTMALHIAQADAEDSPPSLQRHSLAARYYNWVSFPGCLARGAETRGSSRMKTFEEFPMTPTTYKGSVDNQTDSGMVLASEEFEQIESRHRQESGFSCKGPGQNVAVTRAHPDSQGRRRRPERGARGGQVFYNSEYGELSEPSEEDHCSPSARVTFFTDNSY

The target in one assay is Vascular endothelial growth factor receptor 1 (Homo sapiens, UniProt P17948). In words: Inhibition of VEGFR1 (unknown origin).
Sequence of Vascular endothelial growth factor receptor 1 (P17948 whole entry): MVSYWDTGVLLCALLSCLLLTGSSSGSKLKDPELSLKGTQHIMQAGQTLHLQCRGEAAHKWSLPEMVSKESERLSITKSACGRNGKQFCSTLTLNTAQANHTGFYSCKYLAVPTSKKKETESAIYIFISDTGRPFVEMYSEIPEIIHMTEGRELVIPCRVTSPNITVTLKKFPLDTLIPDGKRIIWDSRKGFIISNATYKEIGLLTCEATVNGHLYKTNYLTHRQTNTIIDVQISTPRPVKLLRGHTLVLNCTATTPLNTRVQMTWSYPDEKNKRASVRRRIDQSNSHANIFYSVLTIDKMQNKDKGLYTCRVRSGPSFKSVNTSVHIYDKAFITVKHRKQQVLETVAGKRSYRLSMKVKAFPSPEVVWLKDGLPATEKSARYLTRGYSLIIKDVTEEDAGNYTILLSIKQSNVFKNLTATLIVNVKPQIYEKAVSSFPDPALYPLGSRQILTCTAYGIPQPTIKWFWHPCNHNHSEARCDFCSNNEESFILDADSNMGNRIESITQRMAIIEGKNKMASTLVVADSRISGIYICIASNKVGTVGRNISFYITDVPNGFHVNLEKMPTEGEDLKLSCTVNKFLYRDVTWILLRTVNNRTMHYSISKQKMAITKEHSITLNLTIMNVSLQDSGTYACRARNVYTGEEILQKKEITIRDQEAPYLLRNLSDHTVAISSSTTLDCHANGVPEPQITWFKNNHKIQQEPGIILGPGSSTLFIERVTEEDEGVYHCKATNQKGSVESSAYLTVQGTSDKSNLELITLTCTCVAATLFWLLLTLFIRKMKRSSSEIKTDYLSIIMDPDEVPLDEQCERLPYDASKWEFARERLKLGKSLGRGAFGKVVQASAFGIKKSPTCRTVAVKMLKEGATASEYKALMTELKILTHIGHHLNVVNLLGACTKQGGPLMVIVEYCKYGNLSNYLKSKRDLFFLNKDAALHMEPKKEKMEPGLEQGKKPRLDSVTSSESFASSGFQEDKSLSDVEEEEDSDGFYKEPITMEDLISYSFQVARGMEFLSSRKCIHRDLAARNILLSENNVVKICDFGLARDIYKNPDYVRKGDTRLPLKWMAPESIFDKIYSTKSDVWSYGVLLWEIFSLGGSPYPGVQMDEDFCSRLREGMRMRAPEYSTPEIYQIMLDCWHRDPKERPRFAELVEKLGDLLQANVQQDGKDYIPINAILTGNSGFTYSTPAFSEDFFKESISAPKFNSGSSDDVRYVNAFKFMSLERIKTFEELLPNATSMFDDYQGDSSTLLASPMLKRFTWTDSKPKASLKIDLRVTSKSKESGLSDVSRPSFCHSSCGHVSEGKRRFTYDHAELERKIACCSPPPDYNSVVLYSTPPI
Conditions: not given
As usually defined, the IC50 is the point on the concentration scale where inhibition reaches its midpoint. Turning to `COc1cc2nccc(Oc3ccc(NC(=O)NC4CC4)c(Cl)c3)c2cc1C(N)=O` [LENVATINIB], it took 0.022 µM to reach half-maximal inhibition (IC50).

Another assay concerns the target Vascular endothelial growth factor receptor 3 (Homo sapiens, UniProt P35916). In words: Inhibition of VEGFR3 (unknown origin).
Conditions: not given
In turn, `COc1cc2nccc(Oc3ccc(NC(=O)C4(C(=O)Nc5ccc(F)cc5)CC4)cc3)c2cc1OC` [CABOZANTINIB] came in with a 50% inhibitory concentration (IC50) of 0.006 µM.

For another assay, the system named is M21. The experiment in a line: Antiproliferative activity against human M21 cells bt MTT assay. It counts as functional, cell-based.
Conditions: not given
(Formazan colour is commonly taken as a measure of viable cells.)
The compound `O=C(Nc1ccc(-n2ncc3c(Br)cccc32)cc1)Nc1ccc(Cl)c(C(F)(F)F)c1` yielded a concentration for half-maximal inhibition (IC50) of 3.43 µM.

For a further assay, the system named is PLC. In words: Cytotoxicity against human PLC cells. It counts as functional, cell-based.
Conditions: not given
For the compound `O=C(Nc1ccc(-n2ncc3cc(C(F)(F)F)ccc32)cc1)Nc1ccc(C(F)(F)F)cc1`, 4.34 µM corresponded to half-maximal inhibition (IC50).

For the next assay, the system named is HepG2. The experiment in a line: Cytotoxicity against human HepG2 cells after 24 hrs by MTT assay. It counts as functional, cell-based. To be noted: HepG2, 24 h.
As for `O=C(Nc1ccc(Cl)cc1)Nc1ccc(Oc2ncnc3cc(F)ccc23)cc1`, half-maximal inhibition (IC50) required 8.08 µM.

The subject of the next assay is SMMC-7721. The experiment in a line: Cytotoxicity against human SMMC7721 cells after 24 hrs by MTT assay. To be noted: SMMC-7721, 24 h. It counts as functional, cell-based.
As for `O=C(Nc1ccc(Cl)cc1)Nc1ccc(Oc2ncnc3cc(F)ccc23)cc1`, half-maximal inhibition (IC50) was put at 10.6 µM.

The target of a further assay is Signal transducer and activator of transcription 3 (Homo sapiens) (UniProt P40763). In words: Activation of STAT3 phosphorylation at Y705 residue in human Huh7 cells relative to control. It counts as cell-based.
Sequence of Signal transducer and activator of transcription 3 (Homo sapiens) (P40763 whole entry): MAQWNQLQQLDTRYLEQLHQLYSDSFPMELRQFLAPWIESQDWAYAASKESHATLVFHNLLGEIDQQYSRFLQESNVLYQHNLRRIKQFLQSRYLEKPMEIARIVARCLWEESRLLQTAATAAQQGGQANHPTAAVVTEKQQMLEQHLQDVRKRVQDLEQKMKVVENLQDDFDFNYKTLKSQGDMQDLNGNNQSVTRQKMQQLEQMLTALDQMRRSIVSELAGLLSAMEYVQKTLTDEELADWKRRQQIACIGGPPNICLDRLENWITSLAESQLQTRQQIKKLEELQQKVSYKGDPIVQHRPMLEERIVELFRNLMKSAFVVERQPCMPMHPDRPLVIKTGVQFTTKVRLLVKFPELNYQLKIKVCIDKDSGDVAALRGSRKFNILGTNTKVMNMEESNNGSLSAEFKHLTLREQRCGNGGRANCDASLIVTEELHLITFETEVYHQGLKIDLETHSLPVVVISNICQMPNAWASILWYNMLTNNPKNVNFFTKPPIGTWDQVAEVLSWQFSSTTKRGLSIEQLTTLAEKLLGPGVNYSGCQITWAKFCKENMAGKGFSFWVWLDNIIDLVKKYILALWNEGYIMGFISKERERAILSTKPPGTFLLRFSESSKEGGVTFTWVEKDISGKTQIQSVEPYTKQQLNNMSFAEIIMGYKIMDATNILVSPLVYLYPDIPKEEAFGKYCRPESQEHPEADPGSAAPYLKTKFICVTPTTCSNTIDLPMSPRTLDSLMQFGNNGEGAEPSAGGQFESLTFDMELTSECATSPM
Conditions: not given
`Cc1ccc(NC(=O)Nc2ccc(C)c(Oc3ccc(C#N)cc3)c2)cc1Oc1ccc(C#N)cc1` registered an Activity of 40%.
Same read-out and setting: the value for `Cc1ccc(NC(=O)C2(C(=O)Nc3ccc(C)c(Oc4ccc(C#N)cc4)c3)CC2)cc1Oc1ccc(C#N)cc1` was 80%.

The subject of another assay is Hep 3B2. The experiment in a line: Induction of apoptosis in human Hep3B cells relative to control. It counts as functional.
Conditions: not given
With `Cc1ccc(NC(=O)Nc2ccc(C)c(Oc3ccc(C#N)cc3)c2)cc1Oc1ccc(C#N)cc1`, the Activity is given as 17.5%.
Turning to `Cc1ccc(NC(=O)C2(C(=O)Nc3ccc(C)c(Oc4ccc(C#N)cc4)c3)CC2)cc1Oc1ccc(C#N)cc1`, the Activity was determined as 2.5%.

A further assay concerns HepG2. In words: Induction of apoptosis in human HepG2 cells relative to control. It counts as functional.
Conditions: not given
For `Cc1ccc(NC(=O)Nc2ccc(C)c(Oc3ccc(C#N)cc3)c2)cc1Oc1ccc(C#N)cc1`, the Activity is recorded as 22.5%.
On the same count and under the same terms, next, `Cc1ccc(NC(=O)C2(C(=O)Nc3ccc(C)c(Oc4ccc(C#N)cc4)c3)CC2)cc1Oc1ccc(C#N)cc1`: 2%.

Test system in another assay: not listed separately
In words: Induction of apoptosis in human PLC5 cells relative to control. It counts as functional.
Conditions: not given
Consider `Cc1ccc(NC(=O)Nc2ccc(C)c(Oc3ccc(C#N)cc3)c2)cc1Oc1ccc(C#N)cc1`, for which the Activity stood at 17.5%.
Compound `Cc1ccc(NC(=O)C2(C(=O)Nc3ccc(C)c(Oc4ccc(C#N)cc4)c3)CC2)cc1Oc1ccc(C#N)cc1` registered an Activity of 4.5%.

The subject of the next assay is HepG2. The experiment in a line: Antitumor activity against human HepG2 cells by MTT assay. It counts as functional, cell-based.
Conditions: not given
Turning to `Cc1ccc(C(=O)/C=C/c2ccc(OC3CCCC3)cc2)cc1`, the IC50 came to 20 µM.
Compound `CCN1CCC(=O)/C(=C/c2ccc(OC3CCCC3)cc2)C1` had an IC50 of 13 µM.
On the same count and under the same terms, next, `O=C1CCCC/C1=C\c1ccc(OC2CCCC2)cc1`: 55.4 µM.
Still for that read-out and setting: next, `CCOC(=O)C1=C(C)OC(N)=C(C#N)C1c1ccc(OC2CCCC2)cc1` (stereo unspecified): 8 µM; `Cc1ccc(C2=NN(c3ccccc3)C(c3ccc(OC4CCCC4)cc3)C2)cc1` (stereo unspecified): 7.2 µM.
On the same count and under the same terms, the value for `O=C1CCCCC/C1=C\c1ccc(OC2CCCC2)cc1` was 71.3 µM; that for `O=C1CCC/C1=C\c1ccc(OC2CCCC2)cc1` was greater than 100 µM; that for `CC(=O)/C=C/c1ccc(OC2CCCC2)cc1` was 27.3 µM.
`CN1CCC(=O)/C(=C/c2ccc(OC3CCCC3)cc2)C1` gave a half-maximal inhibitory concentration (IC50) of 15.9 µM.

In the next assay the test system is MCF7. The experiment in a line: Antitumor activity against human MCF7 cells by MTT assay. It counts as functional, cell-based.
Conditions: not given
The compound `Cc1ccc(C(=O)/C=C/c2ccc(OC3CCCC3)cc2)cc1` returned an IC50 of 36.4 µM. This counts as double-digit micromolar.
The same measure, in the same setting: next, `CCN1CCC(=O)/C(=C/c2ccc(OC3CCCC3)cc2)C1`: 13.7 µM; `O=C1CCCC/C1=C\c1ccc(OC2CCCC2)cc1`: 49.4 µM.
`CCOC(=O)C1=C(C)OC(N)=C(C#N)C1c1ccc(OC2CCCC2)cc1` (stereo unspecified) had a concentration for half-maximal inhibition (IC50) of 7.5 µM.
Same read-out and setting: the value for `Cc1ccc(C2=NN(c3ccccc3)C(c3ccc(OC4CCCC4)cc3)C2)cc1` (stereo unspecified) was 5.6 µM.
The compound `O=C1CCCCC/C1=C\c1ccc(OC2CCCC2)cc1` displayed an IC50 of 64.7 µM.
Same read-out and setting: next, `O=C1CCC/C1=C\c1ccc(OC2CCCC2)cc1`: greater than 100 µM.
Same read-out and setting: the value for `CC(=O)/C=C/c1ccc(OC2CCCC2)cc1` was 40.9 µM; that for `CN1CCC(=O)/C(=C/c2ccc(OC3CCCC3)cc2)C1` was 18.1 µM.

The subject of the next assay is PC-3. The experiment in a line: Antitumor activity against human PC3 cells by MTT assay. It counts as functional, cell-based.
Conditions: not given
The compound `Cc1ccc(C(=O)/C=C/c2ccc(OC3CCCC3)cc2)cc1` displayed an IC50 of 17.1 µM.
On the same count and under the same terms, next, `CCN1CCC(=O)/C(=C/c2ccc(OC3CCCC3)cc2)C1`: 9.1 µM.
Same read-out and setting: the value for `O=C1CCCC/C1=C\c1ccc(OC2CCCC2)cc1` was 71.1 µM.
The same measure, in the same setting: the value for `CCOC(=O)C1=C(C)OC(N)=C(C#N)C1c1ccc(OC2CCCC2)cc1` (stereo unspecified) was 13.3 µM.
Turning to `Cc1ccc(C2=NN(c3ccccc3)C(c3ccc(OC4CCCC4)cc3)C2)cc1` (stereo unspecified), the midpoint of inhibition, the IC50, lay at 7.8 µM. This IC50 is about 1.7-fold lower than that of the compound before.
The same measure, in the same setting: next, `O=C1CCCCC/C1=C\c1ccc(OC2CCCC2)cc1`: 26.9 µM; `O=C1CCC/C1=C\c1ccc(OC2CCCC2)cc1`: 94.1 µM.
On the same count and under the same terms, the value for `CC(=O)/C=C/c1ccc(OC2CCCC2)cc1` was 21.8 µM; that for `CN1CCC(=O)/C(=C/c2ccc(OC3CCCC3)cc2)C1` was 10.5 µM.
